Experimental data: patent US20020193425A1, “Cancer chemopreventative compounds and compositions and methods of treating cancers” (priority 2001, published 2002)

Assays:
Format in all cases: cell-based
[1] = system: c-myc mRNA, Reh; assay: c-myc mRNA levels, real time RT-PCR
Experimental: (§1) RNA was extracted from 10^6 cells using TRIZOL® Reagent (Life Technologies). Following isopropanol precipitation, the pellet was washed in 75% aqueous ethanol and the RNA was dissolved in […] of diethyl pyrocarbonate (DEPC)-treated distilled water. Subsequently, the samples were stored at −80° C. RNA quantitation was performed by UV measurement at 260 nm. The cDNA synthesis was performed in a total volume of […], containing 1×TaqManÒ RT buffer, 5.5 mM MgCl2, 2 mM dNTPs mixture, 2.5 mM random hexamers, 4 U RNase inhibitor, 12.5 U MultiScriber RT (Perkin Elmer/Applied Biosystems) and […] of RNA. The reaction was performed for 10 min at 25° C., followed by 48° C. for 30 min and a 5 min incubation step at 95° C. After the reaction, […] of DEPC-treated distilled water was added to each sample and […] was used for each PCR.
(§2) The PCR and subsequent analyses were performed in the GeneAmp 5700 Sequence Detection System (Applied Biosystems). Real-time quantitation was performed using the TaqMan technology of Applied Biosystems (Foster City, Calif., USA). c-Myc primers and probe sequences (5′ to 3′) were as follows: […], […] and […] (Applied Biosystems).
(§3) PCR reactions were performed in triplicate. The PCR reaction mixture contained 300 nM of both primers, 150 nM TaqMan probe, and 1×TaqMan Universal Master Mix (Applied Biosystems). The reactions first were incubated at 50° C. for 2 min, followed by 10 min at 95° C. The PCR itself consisted of 40 cycles with 15 s at 95° C. and 1 min at 60° C. each. The fluorescence signal was measured during the last 30 s of the annealing/extension phase. After the PCR, a fluorescence threshold value was set and threshold cycle (Ct) values were determined, i.e., the fractional cycle at which the fluorescence signal reached this threshold. These values were used for further calculations.
(§4) β-Actin (TaqMan PDAR control, Applied Biosystems) was used as an endogenous reference to correct for any differences in the amount of total RNA used for a reaction and to compensate for different levels of inhibition during reverse transcription of RNA into cDNA. c-Myc and β-actin expression were related to a standard curve derived from a serial dilution of K562 cDNA with dH2O. Also, c-Myc and β-actin quantities were expressed in terms of ng of K562 RNA yielding the same level of expression. Subsequently, normalization was achieved by dividing the expression level of c-Myc by the β-actin expression level. Finally, results were expressed as a percentage, where the level of c-Myc observed in the DMSO-treated samples was considered as 100%.
(§5) Cells were treated with brusatol (25 ng/ml) or bruceantin (10 ng/ml) for 4 or 24 h and then analyzed for c-myc and β-actin mRNA using real time RT-PCR. Results are shown as percentage of c-myc mRNA expression of control (0.1%, v/v, DMSO) values. Results are the mean of triplicate samples (±standard deviation). c-Myc mRNA values were normalized relative to β-actin.

[2] = system: c-myc mRNA, K562; assay: c-myc mRNA levels, real time RT-PCR
Experimental: as §1, §2, §3, §4, §5

[3] = system: c-myc mRNA, Daudi; assay: c-myc mRNA levels, real time RT-PCR
Experimental: as §1, §2, §3, §4, §5

[4] = system: c-myc mRNA, BV173; assay: c-myc mRNA levels, real time RT-PCR
Experimental: as §1, §2, §3, §4, §5

[5] = system: c-myc mRNA, U937; assay: c-myc mRNA levels, real time RT-PCR
Experimental: as §1, §2, §3, §4, §5

[6] = system: c-myc mRNA, Kasumi-1; assay: c-myc mRNA levels, real time RT-PCR
Experimental: as §1, §2, §3, §4, §5

[7] = system: c-myc mRNA, NB4; assay: c-myc mRNA levels, real time RT-PCR
Experimental: as §1, §2, §3, §4, §5

[8] = system: c-myc mRNA, RS4;11; assay: c-myc mRNA levels, real time RT-PCR
Experimental: as §1, §2, §3, §4, §5

[9] = system: c-myc mRNA, SUPB13; assay: c-myc mRNA levels, real time RT-PCR
Experimental: as §1, §2, §3, §4, §5

[10] = system: DMBA-induced preneoplastic lesion formation in mouse mammary organ culture; assay: Inhibition of DMBA-induced preneoplastic lesion formation in mouse mammary organ culture (MMOC); conditions: Mus musculus; quassinoid (2 μM); in comparison with a DMBA control
Experimental: The identification of potential inhibitors of DMBA-induced preneoplastic lesion formation in mammary organ culture has been described previously. Briefly, four-week old BALB/c female mice (Charles River) were pretreated for nine days with 1 μg estradiol and 1 mg progesterone. The thoracic pair of mammary glands was dissected on silk and incubated with growth-promoting hormones in the presence of test compounds (2 μM) for 10 days. DMBA ([…]) was included in the medium (containing […]) for 24 hours on the third day of culture to induce preneoplastic mammary lesions. Following 10 days of growth promoting phase, all hormones except insulin were withdrawn and the glands were allowed to regress to lobuloalveolar structures during a 14-day incubation period. Glands then were fixed in 10% buffered formalin and stained with alum carmine. Incidence of lesion formation (percentage of glands per group with mammary lesions) was recorded, and percent inhibition was calculated by comparison with the DMBA control group that was not treated with test sample. Active samples induce 60% inhibition, based on historical controls.

COC(=O)[C@@]12OC[C@]34[C@H]([C@@H](O)[C@@H]1O)[C@@]1(C)CC(=O)C(O)=C(C)[C@@H]1C[C@H]3OC(=O)[C@H](OC(=O)C=C(C)C)[C@@H]24 [compound 1, brusatol]
c-myc mRNA expression, percentage of control ([1]; Brusatol (25 ng/ml), 4 h): 87 ± 2% | c-myc mRNA expression, percentage of control ([1]; Brusatol (25 ng/ml), 24 h): 38 ± 3 % | decrease in c-Myc mRNA levels ([2]; 4 h treatment): about 40% | c-myc mRNA expression, percentage of control ([2]; Brusatol (25 ng/ml), 4 h): 62 ± 4 % | c-myc mRNA expression, percentage of control ([2]; Brusatol (25 ng/ml), 24 h): 45 ± 6 % | c-myc mRNA expression, percentage of control ([3]; Brusatol (25 ng/ml), 4 h): 100 ± 7% | c-myc mRNA expression, percentage of control ([3]; Brusatol (25 ng/ml), 24 h): 84 ± 1 % | c-myc mRNA expression, percentage of control ([4]; Brusatol (25 ng/ml), 4 h): 78 ± 12 % | c-myc mRNA expression, percentage of control ([4]; Brusatol (25 ng/ml), 24 h): 45 ± 0 % | c-myc mRNA expression, percentage of control ([5]; Brusatol (25 ng/ml), 4 h): 103 ± 1% | c-myc mRNA expression, percentage of control ([5]; Brusatol (25 ng/ml), 24 h): 19 ± 1 % | c-myc mRNA expression, percentage of control ([6]; Brusatol (25 ng/ml), 4 h): 27 ± 5 % | c-myc mRNA expression, percentage of control ([6]; Brusatol (25 ng/ml), 24 h): 31 ± 3 % | c-myc mRNA expression, percentage of control ([7]; Brusatol (25 ng/ml), 4 h): 34 ± 4 % | c-myc mRNA expression, percentage of control ([7]; Brusatol (25 ng/ml), 24 h): 24 ± 3 % | c-myc mRNA expression, percentage of control ([8]; RS4,11, Brusatol (25 ng/ml), 24 h): 37 ± 2 % | c-myc mRNA expression, percentage of control ([8]; RS4;11, Brusatol (25 ng/ml), 4 h): 54 ± 5 % | c-myc mRNA expression, percentage of control ([9]; Brusatol (25 ng/ml), 4 h): 27 ± 3 % | c-myc mRNA expression, percentage of control ([9]; Brusatol (25 ng/ml), 24 h): 24 ± 1 % | inhibition at 2 µM [10]: 70%

COC(=O)[C@@]12OC[C@]34[C@H]([C@@H](O)[C@@H]1O)[C@@]1(C)CC(=O)C(O)=C(C)[C@@H]1C[C@H]3OC(=O)[C@H](OC(=O)/C=C(\C)C(C)C)[C@@H]24 [compound 2, bruceantin]
c-myc mRNA expression, percentage of control ([1]; Bruceantin (10 ng/ml), 4 h): 68 ± 5 % | c-myc mRNA expression, percentage of control ([1]; Bruceantin (10 ng/ml), 24 h): 42 ± 6 % | c-myc mRNA expression, percentage of control ([2]; Bruceantin (10 ng/ml), 4 h): 55 ± 2 % | c-myc mRNA expression, percentage of control ([2]; Bruceantin (10 ng/ml), 24 h): 33 ± 2 % | c-myc mRNA expression, percentage of control ([3]; Bruceantin (10 ng/ml), 4 h): 134 ± 17% | c-myc mRNA expression, percentage of control ([3]; Bruceantin (10 ng/ml), 24 h): 70 ± 5 % | c-myc mRNA expression, percentage of control ([4]; Bruceantin (10 ng/ml), 4 h): 125 ± 11 % | c-myc mRNA expression, percentage of control ([4]; Bruceantin (10 ng/ml), 24 h): 67 ± 9 % | c-myc mRNA expression, percentage of control ([5]; Bruceantin (10 ng/ml), 4 h): 86 ± 1% | c-myc mRNA expression, percentage of control ([5]; Bruceantin (10 ng/ml), 24 h): 19 ± 2 % | c-myc mRNA expression, percentage of control ([6]; Bruceantin (10 ng/ml), 4 h): 20 ± 2 % | c-myc mRNA expression, percentage of control ([6]; Bruceantin (10 ng/ml), 24 h): 15 ± 2 % | c-myc mRNA expression, percentage of control ([7]; Bruceantin (10 ng/ml), 4 h): 27 ± 4 % | c-myc mRNA expression, percentage of control ([7]; Bruceantin (10 ng/ml), 24 h): 85 ± 5% | c-myc mRNA expression, percentage of control ([8]; RS4;11, Bruceantin (10 ng/ml), 4 h): 68 ± 3% | c-myc mRNA expression, percentage of control ([8]; RS4;11, Bruceantin (10 ng/ml), 24 h): 31 ± 8 % | c-myc mRNA expression, percentage of control ([9]; Bruceantin (10 ng/ml), 4 h): 38 ± 2 % | c-myc mRNA expression, percentage of control ([9]; Bruceantin (10 ng/ml), 24 h): 24 ± 2 % | inhibition at 2 µM [10]: 70%
